The source of these data is BindingDB's records for doi:10.1021/jm501787c (Duquesne University, 2015).

Assay [1] is described as follows: Binding affinity to human FRalpha expressed in Chinese hamster RT16 cells assessed as cell growth inhibition after 96 hrs by CellTiter-Blue assay. On the technique in general: The colour change of resazurin is a common sign of viable cells or microbes.
The nature of assay [2]: Binding affinity to human RFC expressed in Chinese hamster PC43-10 cells assessed as cell growth inhibition after 96 hrs by CellTiter-Blue assay.
A short description of assay [3]: Binding affinity to human PCFT expressed in Chinese hamster R2/PCFT4 cells assessed as cell growth inhibition after 96 hrs by CellTiter-Blue assay.

The term IC50 denotes the concentration that gives 50% inhibition.

Regarding `Nc1nc2[nH]cc(Cc3ccc(C(=O)N[C@@H](CCC(=O)O)C(=O)O)s3)c2c(=O)[nH]1`, the IC50 in assay [1], in assay [2] and in assay [3] was more than 1000 nM throughout.

On to `Nc1nc2[nH]cc(CCc3ccc(C(=O)N[C@@H](CCC(=O)O)C(=O)O)s3)c2c(=O)[nH]1`, for which the IC50 in assay [1] is 550 nM; in assay [2], 60 nM; in assay [3] it was 80 nM.

On to `Nc1nc2[nH]cc(CCCc3ccc(C(=O)N[C@@H](CCC(=O)O)C(=O)O)s3)c2c(=O)[nH]1`, for which the figures for the IC50 in assay [1], in assay [2] and in assay [3] were 109 nM, 116 nM and 312 nM, respectively.

`Nc1nc2[nH]cc(CCCCc3ccc(C(=O)N[C@@H](CCC(=O)O)C(=O)O)s3)c2c(=O)[nH]1`: the IC50 in assay [1] was 49 nM; in assay [2], 38 nM; in assay [3], 141 nM.

Regarding `Nc1nc2[nH]cc(CCCCCc3ccc(C(=O)N[C@@H](CCC(=O)O)C(=O)O)s3)c2c(=O)[nH]1`, the IC50 in assay [1] turned out to be 46 nM; in assay [2], 243 nM; in assay [3], 57 nM.

For the compound `Nc1nc2[nH]cc(CCCCCCc3ccc(C(=O)N[C@@H](CCC(=O)O)C(=O)O)s3)c2c(=O)[nH]1`, the IC50 in assay [1], in assay [2] and in assay [3] was more than 1000 nM in each case.

As for `Nc1nc2[nH]c(CCCCc3ccc(C(=O)N[C@@H](CCC(=O)O)C(=O)O)s3)cc2c(=O)[nH]1` [(S)-2-({5-[4-(2-Amino-4-oxo-4,7-dihydro-3H-pyrrolo[2,3-d]-pyrimidin-6-yl)-butyl]-thiophene-2-carbonyl}-amino)-pentanedioicAcid], the figures for the 50% inhibitory concentration (IC50) in assay [1] and in assay [2] were 1.8 nM and more than 1000 nM, respectively.
